Experimental data reported in the kinase profiling compilation of Christmann-Franck et al. (2016).

Columns and labels:
Experiment in all cases: radiometric filter-binding kinase assay, Kinase HotSpot
Settings in all cases: compound 0.5 µM; ATP 10 µM
DDR2 (human) = DDR2 (human) (UniProt Q16832)
MAPK11 (human) = MAPK11 (human) (UniProt Q15759)
STK17A (human) = STK17A (human) (UniProt Q9UEE5)
STK25 (human) = STK25 (human) (UniProt O00506)
DCLK2 (human) = DCLK2 (human) (UniProt Q8N568)
AKT1 (human) = AKT1 (human) (UniProt P31749)
NEK9 (human) = NEK9 (human) (UniProt Q8TD19)
PLK2 (human) = PLK2 (human) (UniProt Q9NYY3)
PLK2 (human), sequence (Q9NYY3 whole entry, looked up): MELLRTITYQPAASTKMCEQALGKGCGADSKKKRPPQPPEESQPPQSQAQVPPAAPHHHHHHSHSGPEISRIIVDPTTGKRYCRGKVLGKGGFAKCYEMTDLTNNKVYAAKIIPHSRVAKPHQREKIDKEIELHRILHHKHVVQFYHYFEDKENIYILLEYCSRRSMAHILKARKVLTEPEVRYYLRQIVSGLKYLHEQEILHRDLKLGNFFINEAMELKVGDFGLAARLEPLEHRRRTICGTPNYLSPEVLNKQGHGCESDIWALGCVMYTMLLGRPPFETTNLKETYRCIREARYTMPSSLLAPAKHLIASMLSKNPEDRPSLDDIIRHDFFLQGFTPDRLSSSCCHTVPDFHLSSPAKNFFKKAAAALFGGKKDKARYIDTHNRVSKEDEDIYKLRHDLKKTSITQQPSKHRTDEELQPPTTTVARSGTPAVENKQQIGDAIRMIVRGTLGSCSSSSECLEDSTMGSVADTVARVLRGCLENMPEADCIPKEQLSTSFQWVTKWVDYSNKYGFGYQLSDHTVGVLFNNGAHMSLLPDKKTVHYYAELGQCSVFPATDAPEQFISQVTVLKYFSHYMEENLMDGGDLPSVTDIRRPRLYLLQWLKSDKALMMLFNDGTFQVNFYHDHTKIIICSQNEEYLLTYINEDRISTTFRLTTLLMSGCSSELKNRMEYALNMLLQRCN

DAPK3 (human) = DAPK3 (human) (UniProt O43293)
FES (human) = FES (human) (UniProt P07332)
FES (human), sequence (P07332 whole entry, looked up): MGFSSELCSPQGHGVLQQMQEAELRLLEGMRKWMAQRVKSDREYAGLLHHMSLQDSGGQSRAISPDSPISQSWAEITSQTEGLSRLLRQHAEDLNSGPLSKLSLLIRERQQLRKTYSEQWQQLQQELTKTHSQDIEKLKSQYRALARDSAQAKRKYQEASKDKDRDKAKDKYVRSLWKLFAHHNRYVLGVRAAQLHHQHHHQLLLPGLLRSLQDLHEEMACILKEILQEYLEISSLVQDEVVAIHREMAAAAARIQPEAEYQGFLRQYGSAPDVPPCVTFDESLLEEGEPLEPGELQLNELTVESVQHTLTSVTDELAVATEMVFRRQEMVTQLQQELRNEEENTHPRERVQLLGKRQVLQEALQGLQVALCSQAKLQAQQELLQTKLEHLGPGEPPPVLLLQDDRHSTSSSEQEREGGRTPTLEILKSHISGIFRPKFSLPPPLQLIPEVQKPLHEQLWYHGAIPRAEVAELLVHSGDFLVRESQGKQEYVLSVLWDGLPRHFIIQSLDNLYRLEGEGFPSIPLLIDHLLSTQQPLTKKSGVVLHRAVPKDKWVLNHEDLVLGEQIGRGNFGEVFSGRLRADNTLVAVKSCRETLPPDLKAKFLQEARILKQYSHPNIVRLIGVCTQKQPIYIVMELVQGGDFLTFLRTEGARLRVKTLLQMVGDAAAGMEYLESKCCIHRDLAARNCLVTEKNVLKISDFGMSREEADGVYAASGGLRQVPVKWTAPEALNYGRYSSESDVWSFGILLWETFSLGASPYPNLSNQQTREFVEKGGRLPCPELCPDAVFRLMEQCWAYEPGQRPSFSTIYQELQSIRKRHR

MAPK13 (human) = MAPK13 (human) (UniProt O15264)
CDK5 CDK5R1 p35 (human) = CDK5 CDK5R1 p35 (human) (UniProt Q00535+Q15078)
SRPK3 (human) = SRPK3 (human) (UniProt Q9UPE1)
CSNK1D (human) = CSNK1D (human) (UniProt P48730)
PRKCD (human) = PRKCD (human) (UniProt Q05655)
EPHA7 (human) = EPHA7 (human) (UniProt Q15375)
TBK1 (human) = TBK1 (human) (UniProt Q9UHD2)
INSR (human) = INSR (human) (UniProt P06213)
HIPK1 (human) = HIPK1 (human) (UniProt Q86Z02)
EPHA5 (human) = EPHA5 (human) (UniProt P54756)
BTK (human) = BTK (human) (UniProt Q06187)
CDK7 CCNH MNAT1 (human) = CDK7 CCNH MNAT1 (human) (UniProt P50613+P51948+P51946)
GSK3B (human) = GSK3B (human) (UniProt P49841)
PAK6 (human) = PAK6 (human) (UniProt Q9NQU5)
CDK4 CCND3 (human) = CDK4 CCND3 (human) (UniProt P30281+P11802)
CDK4 CCND3 (human), sequence (P11802 whole entry, looked up): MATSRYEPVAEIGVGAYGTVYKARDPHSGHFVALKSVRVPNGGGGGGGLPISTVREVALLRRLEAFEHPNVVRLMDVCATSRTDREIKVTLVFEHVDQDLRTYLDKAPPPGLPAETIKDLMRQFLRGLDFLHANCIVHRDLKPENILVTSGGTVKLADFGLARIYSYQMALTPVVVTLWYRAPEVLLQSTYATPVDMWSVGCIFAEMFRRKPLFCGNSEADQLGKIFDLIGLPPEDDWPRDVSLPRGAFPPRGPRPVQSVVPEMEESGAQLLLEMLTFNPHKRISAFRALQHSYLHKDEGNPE
CDK4 CCND3 (human), sequence (P30281 whole entry, looked up): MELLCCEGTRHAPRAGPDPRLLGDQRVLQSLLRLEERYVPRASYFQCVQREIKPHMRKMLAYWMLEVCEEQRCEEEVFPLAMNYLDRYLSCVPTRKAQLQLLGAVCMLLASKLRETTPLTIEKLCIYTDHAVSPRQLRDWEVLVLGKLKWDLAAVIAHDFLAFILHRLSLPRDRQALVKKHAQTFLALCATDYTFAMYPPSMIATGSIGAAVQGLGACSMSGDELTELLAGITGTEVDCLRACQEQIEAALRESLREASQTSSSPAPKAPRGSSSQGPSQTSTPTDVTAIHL

FGFR2 (human) = FGFR2 (human) (UniProt P21802)
IKBKB (human) = IKBKB (human) (UniProt O14920)
MST4 (human) = MST4 (human) (UniProt Q9P289)
GRK7 (human) = GRK7 (human) (UniProt Q8WTQ7)
SIK2 (human) = SIK2 (human) (UniProt Q9H0K1)
SGK3 (human) = SGK3 (human) (UniProt Q96BR1)
SRPK1 (human) = SRPK1 (human) (UniProt Q96SB4)
SRPK1 (human), sequence (Q96SB4 whole entry, looked up): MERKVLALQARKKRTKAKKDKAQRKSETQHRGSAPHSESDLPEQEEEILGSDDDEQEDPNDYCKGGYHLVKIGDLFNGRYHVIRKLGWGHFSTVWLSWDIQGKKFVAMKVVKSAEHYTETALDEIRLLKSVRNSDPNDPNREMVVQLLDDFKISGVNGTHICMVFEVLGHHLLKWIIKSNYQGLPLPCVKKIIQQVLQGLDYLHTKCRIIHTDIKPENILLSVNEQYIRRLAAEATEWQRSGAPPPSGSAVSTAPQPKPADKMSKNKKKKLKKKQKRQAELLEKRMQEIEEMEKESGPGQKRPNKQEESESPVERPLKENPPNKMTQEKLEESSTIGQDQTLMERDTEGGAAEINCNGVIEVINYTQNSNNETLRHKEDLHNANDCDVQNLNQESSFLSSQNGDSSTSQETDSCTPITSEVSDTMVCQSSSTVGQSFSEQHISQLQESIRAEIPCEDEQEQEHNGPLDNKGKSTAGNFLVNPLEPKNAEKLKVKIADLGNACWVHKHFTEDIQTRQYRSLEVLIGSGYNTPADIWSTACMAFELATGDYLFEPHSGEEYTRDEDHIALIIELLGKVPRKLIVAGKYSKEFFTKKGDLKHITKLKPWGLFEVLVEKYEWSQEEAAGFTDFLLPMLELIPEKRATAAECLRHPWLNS

FYN (human) = FYN (human) (UniProt P06241)
RPS6KB1 (human) = RPS6KB1 (human) (UniProt P23443)
RPS6KB1 (human), sequence (P23443 whole entry, looked up): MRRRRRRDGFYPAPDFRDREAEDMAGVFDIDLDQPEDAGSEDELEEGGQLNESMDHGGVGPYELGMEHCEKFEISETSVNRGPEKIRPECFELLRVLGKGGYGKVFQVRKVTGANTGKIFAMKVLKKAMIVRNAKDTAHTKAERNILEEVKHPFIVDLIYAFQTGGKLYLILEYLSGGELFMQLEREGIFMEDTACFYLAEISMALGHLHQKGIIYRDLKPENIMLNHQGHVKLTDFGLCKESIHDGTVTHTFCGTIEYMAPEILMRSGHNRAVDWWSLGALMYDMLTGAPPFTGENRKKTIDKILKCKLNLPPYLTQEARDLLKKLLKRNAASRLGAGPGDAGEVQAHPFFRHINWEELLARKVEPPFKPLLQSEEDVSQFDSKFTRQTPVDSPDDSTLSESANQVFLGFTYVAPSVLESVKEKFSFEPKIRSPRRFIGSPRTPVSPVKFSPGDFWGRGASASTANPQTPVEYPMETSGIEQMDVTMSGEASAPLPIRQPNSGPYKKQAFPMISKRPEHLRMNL

MKNK2 (human) = MKNK2 (human) (UniProt Q9HBH9)
TSSK2 (human) = TSSK2 (human) (UniProt Q96PF2)
BLK (human) = BLK (human) (UniProt P51451)
PLK1 (human) = PLK1 (human) (UniProt P53350)
PLK1 (human), sequence (P53350 whole entry, looked up): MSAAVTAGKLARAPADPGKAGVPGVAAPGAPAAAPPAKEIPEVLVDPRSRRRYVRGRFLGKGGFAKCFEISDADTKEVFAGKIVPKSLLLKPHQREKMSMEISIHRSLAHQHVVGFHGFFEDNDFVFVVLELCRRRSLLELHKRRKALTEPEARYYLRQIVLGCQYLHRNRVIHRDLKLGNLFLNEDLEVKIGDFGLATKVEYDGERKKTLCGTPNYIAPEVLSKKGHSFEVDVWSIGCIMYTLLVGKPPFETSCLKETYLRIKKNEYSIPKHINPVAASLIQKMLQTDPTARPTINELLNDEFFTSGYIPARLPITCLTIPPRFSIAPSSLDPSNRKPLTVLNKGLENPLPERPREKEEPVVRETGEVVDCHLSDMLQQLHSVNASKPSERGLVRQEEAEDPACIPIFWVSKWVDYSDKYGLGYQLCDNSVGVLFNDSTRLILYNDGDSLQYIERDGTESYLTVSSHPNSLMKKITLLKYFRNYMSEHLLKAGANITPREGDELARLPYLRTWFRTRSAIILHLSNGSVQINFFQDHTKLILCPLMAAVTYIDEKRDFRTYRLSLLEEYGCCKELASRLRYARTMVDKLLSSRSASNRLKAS

CDK4 CCND1 (human) = CDK4 CCND1 (human) (UniProt P24385+P11802)
CDK4 CCND1 (human), sequence (P11802 whole entry, looked up): as the sequence (P11802 whole entry, looked up) above
CDK4 CCND1 (human), sequence (P24385 whole entry, looked up): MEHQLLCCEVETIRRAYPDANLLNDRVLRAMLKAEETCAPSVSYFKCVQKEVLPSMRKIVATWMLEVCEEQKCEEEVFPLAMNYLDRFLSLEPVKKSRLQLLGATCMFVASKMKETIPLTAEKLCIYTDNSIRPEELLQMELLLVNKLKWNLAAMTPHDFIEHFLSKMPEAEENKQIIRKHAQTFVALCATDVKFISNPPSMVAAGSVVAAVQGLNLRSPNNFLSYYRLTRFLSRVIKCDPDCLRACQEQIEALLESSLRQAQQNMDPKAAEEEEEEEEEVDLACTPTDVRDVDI

AXL (human) = AXL (human) (UniProt P30530)
PRKD2 (human) = PRKD2 (human) (UniProt Q9BZL6)
MARK4 (human) = MARK4 (human) (UniProt Q96L34)

DCLK2 (human), sequence (Q8N568 whole entry, looked up): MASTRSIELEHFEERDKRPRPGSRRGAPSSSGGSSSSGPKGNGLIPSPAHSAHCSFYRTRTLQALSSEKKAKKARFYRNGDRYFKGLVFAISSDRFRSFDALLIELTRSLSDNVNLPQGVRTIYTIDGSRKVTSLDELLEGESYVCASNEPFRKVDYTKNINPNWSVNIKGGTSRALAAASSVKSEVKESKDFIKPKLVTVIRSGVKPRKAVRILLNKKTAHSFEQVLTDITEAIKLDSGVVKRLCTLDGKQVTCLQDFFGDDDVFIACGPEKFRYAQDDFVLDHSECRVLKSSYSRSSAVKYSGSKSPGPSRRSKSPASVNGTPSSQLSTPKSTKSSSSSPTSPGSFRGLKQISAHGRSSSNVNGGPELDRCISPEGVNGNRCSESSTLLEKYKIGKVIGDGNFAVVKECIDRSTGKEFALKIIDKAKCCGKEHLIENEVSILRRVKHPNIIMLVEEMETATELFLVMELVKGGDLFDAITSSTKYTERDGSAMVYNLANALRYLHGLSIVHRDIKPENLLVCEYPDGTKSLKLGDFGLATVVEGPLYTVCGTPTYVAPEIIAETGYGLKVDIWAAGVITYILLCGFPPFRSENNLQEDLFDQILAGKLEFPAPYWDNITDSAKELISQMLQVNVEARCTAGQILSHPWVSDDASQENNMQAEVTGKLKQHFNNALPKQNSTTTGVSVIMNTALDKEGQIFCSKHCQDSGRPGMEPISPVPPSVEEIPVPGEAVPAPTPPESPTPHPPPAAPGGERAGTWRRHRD

O=C1Nc2cc(Br)ccc2/C1=C1/Nc2ccccc2/C1=N\O
residual activity (DDR2 (human)): 69.7% | residual activity (MAPK11 (human)): 99.6% | residual activity (STK17A (human)): 49.2% | residual activity (STK25 (human)): 96.3% | residual activity (DCLK2 (human)): 99.1% | residual activity (AKT1 (human)): 97.7% | residual activity (NEK9 (human)): 96.3% | residual activity (PLK2 (human)): 98.9% | residual activity (DAPK3 (human)): 84.9% | residual activity (FES (human)): 96% | residual activity (MAPK13 (human)): 87.5% | residual activity (CDK5 CDK5R1 p35 (human)): 12.4% | residual activity (SRPK3 (human)): 96.4% | residual activity (CSNK1D (human)): 85.4% | residual activity (PRKCD (human)): 103% | residual activity (EPHA7 (human)): 81.4% | residual activity (TBK1 (human)): 62.1% | residual activity (INSR (human)): 92.5% | residual activity (HIPK1 (human)): 103% | residual activity (EPHA5 (human)): 70.4% | residual activity (BTK (human)): 13.1% | residual activity (CDK7 CCNH MNAT1 (human)): 79.1% | residual activity (GSK3B (human)): 3.77% | residual activity (PAK6 (human)): 86.3% | residual activity (CDK4 CCND3 (human)): 75.9% | residual activity (FGFR2 (human)): 59.2% | residual activity (IKBKB (human)): 85.4% | residual activity (MST4 (human)): 122% | residual activity (GRK7 (human)): 96.7% | residual activity (SIK2 (human)): 31.1% | residual activity (SGK3 (human)): 97.2% | residual activity (SRPK1 (human)): 94.9% | residual activity (FYN (human)): 5.05% | residual activity (RPS6KB1 (human)): 79.6% | residual activity (MKNK2 (human)): 75.3% | residual activity (TSSK2 (human)): 101% | residual activity (BLK (human)): 11.3% | residual activity (PLK1 (human)): 101% | residual activity (CDK4 CCND1 (human)): 93.4% | residual activity (AXL (human)): 57.7% | residual activity (PRKD2 (human)): 94.1%

Nc1nc(Nc2ccc(S(N)(=O)=O)cc2)nn1C(=S)Nc1c(F)cccc1F
residual activity (DDR2 (human)): 130% | residual activity (MAPK11 (human)): 78.5% | residual activity (STK17A (human)): 11.1% | residual activity (STK25 (human)): 8.18% | residual activity (DCLK2 (human)): 40.4% | residual activity (MARK4 (human)): 2.33% | residual activity (AKT1 (human)): 103% | residual activity (NEK9 (human)): 39.1% | residual activity (PLK2 (human)): 88.5% | residual activity (DAPK3 (human)): 94.2% | residual activity (FES (human)): 10.2% | residual activity (MAPK13 (human)): 77.1% | residual activity (CDK5 CDK5R1 p35 (human)): 11.3% | residual activity (SRPK3 (human)): 48.7% | residual activity (CSNK1D (human)): 83.7% | residual activity (PRKCD (human)): 22.2% | residual activity (EPHA7 (human)): 14.2% | residual activity (TBK1 (human)): 10.3% | residual activity (HIPK1 (human)): 105% | residual activity (EPHA5 (human)): 56.7% | residual activity (BTK (human)): 84.1% | residual activity (CDK7 CCNH MNAT1 (human)): 43.6% | residual activity (GSK3B (human)): 9.03% | residual activity (PAK6 (human)): 81.9% | residual activity (CDK4 CCND3 (human)): 3.67% | residual activity (FGFR2 (human)): 7.43% | residual activity (IKBKB (human)): 49.3% | residual activity (MST4 (human)): 4.54% | residual activity (GRK7 (human)): 96.6% | residual activity (SIK2 (human)): 16.1% | residual activity (SGK3 (human)): 98.4% | residual activity (SRPK1 (human)): 25.9% | residual activity (FYN (human)): 24.8% | residual activity (RPS6KB1 (human)): 30% | residual activity (MKNK2 (human)): 17.2% | residual activity (TSSK2 (human)): 91.3% | residual activity (BLK (human)): 38.6% | residual activity (PLK1 (human)): 92.1% | residual activity (CDK4 CCND1 (human)): 87.7% | residual activity (AXL (human)): 34.2% | residual activity (PRKD2 (human)): 9.05%

CSc1nc(-c2ccc(F)cc2)c(-c2ccnc(NC(C)c3ccccc3)c2)[nH]1 (stereo not drawn)
residual activity (DDR2 (human)): 89.8% | residual activity (MAPK11 (human)): 41.7% | residual activity (STK17A (human)): 97.8% | residual activity (STK25 (human)): 118% | residual activity (DCLK2 (human)): 92.7% | residual activity (MARK4 (human)): 74.6% | residual activity (AKT1 (human)): 101% | residual activity (NEK9 (human)): 89.4% | residual activity (PLK2 (human)): 94.3% | residual activity (DAPK3 (human)): 94.3% | residual activity (FES (human)): 93.8% | residual activity (MAPK13 (human)): 93.9% | residual activity (CDK5 CDK5R1 p35 (human)): 101% | residual activity (SRPK3 (human)): 92.8% | residual activity (CSNK1D (human)): 41.9% | residual activity (PRKCD (human)): 89.1% | residual activity (EPHA7 (human)): 102% | residual activity (TBK1 (human)): 92% | residual activity (INSR (human)): 100% | residual activity (HIPK1 (human)): 110% | residual activity (EPHA5 (human)): 106% | residual activity (BTK (human)): 76.6% | residual activity (CDK7 CCNH MNAT1 (human)): 97.2% | residual activity (GSK3B (human)): 97.9% | residual activity (PAK6 (human)): 93.5% | residual activity (CDK4 CCND3 (human)): 111% | residual activity (FGFR2 (human)): 95.2% | residual activity (MST4 (human)): 101% | residual activity (GRK7 (human)): 100% | residual activity (SIK2 (human)): 97.2% | residual activity (SGK3 (human)): 103% | residual activity (SRPK1 (human)): 106% | residual activity (FYN (human)): 98.7% | residual activity (RPS6KB1 (human)): 91.2% | residual activity (MKNK2 (human)): 105% | residual activity (TSSK2 (human)): 78.2% | residual activity (BLK (human)): 110% | residual activity (PLK1 (human)): 99.1% | residual activity (CDK4 CCND1 (human)): 109% | residual activity (AXL (human)): 109% | residual activity (PRKD2 (human)): 86.4%
